The values below come from patent US20030194376A1, “Ultrasound contrast agents and methods of making and using them” (Bracco International B.V., priority 1990, published 2003).

SMILES strings stand for the structures.

The data set is described as follows: Water solubility of the filling gas (Bunsen coefficient, Gas Encyclopaedia). It is filed as physicochemical. To be noted: gas solubility divided by square root of molecular weight. From the text: In the Tables, the water solubility factors have also been taken from the aforecited Gas Encyclopaedia from “L'Air Liquide”, Elsevier Publisher (1976).
Take `FC(F)(F)Br` [CBrF3]: the “S gas {square root} Mw” value was “.0004”. `FC(F)(F)F` [CF4]: the “S gas {square root} Mw” value is reported as “.0004”. Then `[Kr]` [Kr, Krypton], with “.006”.
